Consider 31 molecules from US20140243334A1, “SUBSTITUTED HYDOXAMIC ACIDS AND USES THEREOF” (Millennium Pharmaceuticals, Inc., priority 2010, published 2014).

This test has as its target T1, purified human HDAC6 (Homo sapiens, UniProt Q9UBN7).
T1 construct: purchased BPS Bioscience 5006
T1 sequence (Q9UBN7 1-1215): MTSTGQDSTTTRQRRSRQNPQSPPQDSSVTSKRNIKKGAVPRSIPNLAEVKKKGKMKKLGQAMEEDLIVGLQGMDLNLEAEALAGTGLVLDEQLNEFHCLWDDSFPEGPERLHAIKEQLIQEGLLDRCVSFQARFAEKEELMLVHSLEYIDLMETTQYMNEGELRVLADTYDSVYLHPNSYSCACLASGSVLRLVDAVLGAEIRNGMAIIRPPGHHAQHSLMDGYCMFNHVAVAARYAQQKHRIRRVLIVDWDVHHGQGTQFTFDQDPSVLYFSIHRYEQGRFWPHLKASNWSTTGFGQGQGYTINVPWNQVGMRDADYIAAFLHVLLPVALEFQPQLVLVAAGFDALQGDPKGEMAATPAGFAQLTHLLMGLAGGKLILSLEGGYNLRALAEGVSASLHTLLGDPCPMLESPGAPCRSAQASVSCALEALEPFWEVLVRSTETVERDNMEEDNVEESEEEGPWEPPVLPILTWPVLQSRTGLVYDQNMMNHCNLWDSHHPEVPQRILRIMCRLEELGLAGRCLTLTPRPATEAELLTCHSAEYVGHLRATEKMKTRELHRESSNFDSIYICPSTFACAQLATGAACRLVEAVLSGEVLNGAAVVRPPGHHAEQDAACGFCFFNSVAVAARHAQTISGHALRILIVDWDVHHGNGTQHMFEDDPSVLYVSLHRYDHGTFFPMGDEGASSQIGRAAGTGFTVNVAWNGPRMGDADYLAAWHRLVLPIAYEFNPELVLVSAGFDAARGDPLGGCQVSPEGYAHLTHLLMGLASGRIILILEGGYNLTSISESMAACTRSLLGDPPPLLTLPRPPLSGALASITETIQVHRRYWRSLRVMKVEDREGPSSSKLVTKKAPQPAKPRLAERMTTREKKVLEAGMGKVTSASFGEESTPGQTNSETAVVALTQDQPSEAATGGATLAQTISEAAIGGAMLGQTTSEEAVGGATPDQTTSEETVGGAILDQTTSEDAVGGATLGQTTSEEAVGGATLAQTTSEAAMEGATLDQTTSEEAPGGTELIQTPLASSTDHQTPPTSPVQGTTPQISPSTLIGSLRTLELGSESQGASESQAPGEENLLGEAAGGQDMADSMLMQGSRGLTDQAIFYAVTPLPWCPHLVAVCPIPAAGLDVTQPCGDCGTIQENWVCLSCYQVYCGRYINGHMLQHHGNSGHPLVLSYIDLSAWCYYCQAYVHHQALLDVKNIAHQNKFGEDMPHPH
Kind of test: HDAC6 Enzyme Assay. It is filed as biochemical. The note with it: HDAC6 inhibition at a compound concentration of 0.412 μM; read-out: Percent Inhibition at 0.412 μM. As for the experimental part:
To measure the inhibition of HDAC6 activity, purified human HDAC6 (BPS Bioscience; Cat. No. 5006) is incubated with substrate Ac-Arg-Gly-Lys(Ac)-AMC peptide (Bachem Biosciences; Cat. No. I-1925) for 1 hour at 30° C. in the presence of test compounds or vehicle DMSO control. The reaction is stopped with the HDAC inhibitor trichostatin A (Sigma; Cat. No. T8552) and the amount of Arg-Gly-Lys-AMC generated is quantitated by digestion with trypsin (Sigma; Cat. No. T1426) and subsequent measurement of the amount of AMC released using a fluorescent plate reader (Pherastar; BMG Technologies) set at Ex 340 nm and Em 460 nm. Concentration response curves are generated by calculating the fluorescence increase in test compound-treated samples relative to DMSO-treated controls, and enzyme inhibition (IC50) values are determined from those curves.

Consider `COc1ccc2c(c1)CC(C(=O)NO)CC2` (stereo not shown) [Compound I-1, N-hydroxy-7-methoxy-1,2,3,4-tetrahydronaphthalene-2-carboxamide], for which the inhibition (usually the relative decrease from the control value, in per cent) at 0.412 µM stood at 8%.
The same measure for `O=C(Nc1cc(Oc2ccc3c(c2)C[C@@H](C(=O)NO)CC3)ccn1)C1CC1` [Compound I-2, (2S)-7-({2-[(cyclopropylcarbonyl)amino]pyridin-4-yl}oxy)-N-hydroxy-1,2,3,4-tetrahydronaphthalene-2-carboxamide]: 90%; for `O=C(NO)C1CCc2ccccc2C1` (stereo not shown) [Compound I-3, N-hydroxy-1,2,3,4-tetrahydronaphthalene-2-carboxamide]: 33%.
For `O=C1CCc2c(Oc3ccc4c(c3)C[C@@H](C(=O)NO)CC4)ccnc2N1` [Compound I-4, (2S)—N-hydroxy-7-[(7-oxo-5,6,7,8-tetrahydro-1,8-naphthyridin-4-yl)oxy]-1,2,3,4-tetrahydronaphthalene-2-carboxamide], the inhibition at 0.412 µM turned out to be 85%.
The same measure for `O=C(NO)C1CCc2ccc(OCc3ccncc3)cc2C1` (stereo not shown) [Compound I-5, N-hydroxy-7-(pyridin-4-ylmethoxy)-1,2,3,4-tetrahydronaphthalene-2-carboxamide]: 58%; for `O=C(NO)C1CCc2ccc(OCc3ccccc3)cc2C1` (stereo not shown) [Compound I-6, 7-(benzyloxy)-N-hydroxy-1,2,3,4-tetrahydronaphthalene-2-carboxamide]: 53%.
The value for `CC(C)COc1ccc2c(c1)CC(C(=O)NO)CC2` (stereo not shown) [Compound I-7, N-hydroxy-7-isobutoxy-1,2,3,4-tetrahydronaphthalene-2-carboxamide] was 57%; that for `O=C(NO)C1CCc2ccc(Oc3ccccc3)cc2C1` (stereo not shown) [Compound I-8, N-hydroxy-7-phenoxy-1,2,3,4-tetrahydronaphthalene-2-carboxamide] was 73%; that for `O=C(NO)C1CCc2ccc(Oc3cccc(Cl)c3)cc2C1` (stereo not shown) [Compound I-9, 7-(3-chlorophenoxy)-N-hydroxy-1,2,3,4-tetrahydronaphthalene-2-carboxamide] was 74%.
The value for `COc1ccc2c(c1)CCC(C(=O)NO)C2` (stereo not shown) [Compound I-10, N-hydroxy-6-methoxy-1,2,3,4-tetrahydronaphthalene-2-carboxamide] was 32%; that for `O=C(NO)C1CCc2ccc(Oc3ccc(Cl)cc3)cc2C1` (stereo not shown) [Compound I-11, 7-(4-chlorophenoxy)-N-hydroxy-1,2,3,4-tetrahydronaphthalene-2-carboxamide] was 62%.
As for `O=C(NO)C1CCc2ccc(Oc3ccncc3)cc2C1` (stereo not shown) [Compound I-12, N-hydroxy-7-(pyridin-4-yloxy)-1,2,3,4-tetrahydronaphthalene-2-carboxamide], the inhibition at 0.412 µM amounted to 61%.
As to `O=C(NO)C1CCc2cc(Oc3ccnc(NC(=O)C4CC4)c3)ccc2C1` (stereo not shown) [Compound I-13, 6-({2-[(cyclopropylcarbonyl)amino]pyridin-4-yl}oxy)-N-hydroxy-1,2,3,4-tetrahydronaphthalene-2-carboxamide], the inhibition at 0.412 µM came out at 74%.
The value for `O=C1CCc2c(Oc3ccc4c(c3)CCC(C(=O)NO)C4)ccnc2N1` (stereo not shown) [Compound I-14, N-hydroxy-6-[(7-oxo-5,6,7,8-tetrahydro-1,8-naphthyridin-4-yl)oxy]-1,2,3,4-tetrahydronaphthalene-2-carboxamide] was 67%; that for `COc1cccc2c1CC(C(=O)NO)CC2` (stereo not shown) [Compound I-15, N-hydroxy-8-methoxy-1,2,3,4-tetrahydronaphthalene-2-carboxamide] was 25%; that for `O=C(NO)C1CCc2cccc(Oc3ccnc(NC(=O)C4CC4)c3)c2C1` (stereo not shown) [Compound I-16, 8-({2-[(cyclopropylcarbonyl)amino]pyridin-4-yl}oxy)-N-hydroxy-1,2,3,4-tetrahydronaphthalene-2-carboxamide] was 13%.
The value for `O=C(NO)C1CCc2ccc(-c3ccncc3)cc2C1` (stereo not shown) [Compound I-17, N-hydroxy-7-pyridin-4-yl-1,2,3,4-tetrahydronaphthalene-2-carboxamide] was 60%; that for `CC1(C(=O)Nc2ccc3c(c2)CC(C(=O)NO)CC3)CCNCC1` (stereo not shown) [Compound I-18, N-{7-[(hydroxyamino)carbonyl]-5,6,7,8-tetrahydronaphthalen-2-yl}-4-methylpiperidine-4-carboxamide] was 54%; that for `O=C(NO)C1CCc2cc(Oc3cccc(Cl)c3)ccc2C1` (stereo not shown) [Compound I-19, 6-(3-chlorophenoxy)-N-hydroxy-1,2,3,4-tetrahydronaphthalene-2-carboxamide] was 23%.
The value for `CC(C)(C)OC(=O)Nc1ccc2c(c1)CC(C(=O)NO)CC2` (stereo not shown) [Compound I-20, tert-butyl {7-[(hydroxyamino)carbonyl]-5,6,7,8-tetrahydronaphthalen-2-yl}carbamate] was 61%; that for `CC(=O)Nc1cccc(Oc2ccc3c(c2)CC(C(=O)NO)CC3)c1` (stereo not shown) [Compound I-21, 7-[3-(acetylamino)phenoxy]-N-hydroxy-1,2,3,4-tetrahydronaphthalene-2-carboxamide] was 80%.
As for `O=C(NO)C1CCc2ccc(NC(=O)C3CC3)cc2C1` (stereo not shown) [Compound I-22, 7-[(cyclopropylcarbonyl)amino]-N-hydroxy-1,2,3,4-tetrahydronaphthalene-2-carboxamide], the inhibition at 0.412 µM was determined as 72%.
For `O=C(NO)C1CCc2ccc(Nc3ccccc3)cc2C1` (stereo not shown) [Compound I-23, 7-anilino-N-hydroxy-1,2,3,4-tetrahydronaphthalene-2-carboxamide], the inhibition at 0.412 µM was 70%.
On to `CC(=O)Nc1cccc(-c2ccc3c(c2)CC(C(=O)NO)CC3)c1` (stereo not shown) [Compound I-24, 7-[3-(acetylamino)phenyl]-N-hydroxy-1,2,3,4-tetrahydronaphthalene-2-carboxamide], for which the inhibition at 0.412 µM was found to be 86%.
On to `O=C(NO)C1CCc2cc(Oc3ccccc3)ccc2C1` (stereo not shown) [Compound I-25, N-hydroxy-6-phenoxy-1,2,3,4-tetrahydronaphthalene-2-carboxamide], for which the inhibition at 0.412 µM was 27%.
The same measure for `O=C(NO)C1CCc2ccc(Nc3cccc(Cl)c3)cc2C1` (stereo not shown) [Compound I-26, 7-[(3-chlorophenyl)amino]-N-hydroxy-1,2,3,4-tetrahydronaphthalene-2-carboxamide]: 71%.
The value for `O=C(NO)C1CCc2cc(Oc3ccncc3)ccc2C1` (stereo not shown) [Compound I-27, N-hydroxy-6-(pyridin-4-yloxy)-1,2,3,4-tetrahydronaphthalene-2-carboxamide] was 53%; that for `O=C(NO)C1CCc2ccc(NS(=O)(=O)c3ccccc3)cc2C1` (stereo not shown) [Compound I-28, N-hydroxy-7-[(phenylsulfonyl)amino]-1,2,3,4-tetrahydronaphthalene-2-carboxamide] was 65%.
The same measure for `COc1ccc(C(=O)Nc2ccc3c(c2)CC(C(=O)NO)CC3)cc1` (stereo not shown) [Compound I-29, N-hydroxy-7-[(4-methoxybenzoyl)amino]-1,2,3,4-tetrahydronaphthalene-2-carboxamide]: 81%; for `O=C(Nc1ccccc1)Nc1ccc2c(c1)CC(C(=O)NO)CC2` (stereo not shown) [Compound I-30, 7-[(Anilinocarbonyl)amino]-N-hydroxy-1,2,3,4-tetrahydronaphthalene-2-carboxamide]: 86%; for `O=C1CCc2c(Oc3cc4c(cc3F)CCC(C(=O)NO)C4)ccnc2N1` (stereo not shown) [Compound I-31, 6-fluoro-N-hydroxy-7-[(7-oxo-5,6,7,8-tetrahydro-1,8-naphthyridin-4-yl)oxy]-1,2,3,4-tetrahydronaphthalene-2-carboxamide]: 79%.
